Laboratory results taken from patent US20260306460A1, “COMPOSITION FOR REMOVING AND INHIBITING SENESCENT CELLS, AND USES THEREOF” (LIFECEUTIX CO., LTD., priority 2023, published 2026).

Assays:
[1] = tested on: carbon tetrachloride-induced liver fibrosis mice; assay: Carbon tetrachloride-induced liver fibrosis mice, Example 31, Table 57; format: in vivo, mouse; conditions: CCl4-induced liver fibrosis mice, untreated = 100%
Method in brief: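 Mice with induced hepatic fibrosis received either the test compound or, as controls, an equal volume of vehicle solution alone. Once dosing ended, liver tissue was harvested and total RNA was isolated. cDNA was synthesized from this RNA, and quantitative RT-PCR was run on it to measure hepatic mRNA levels of the fibrosis- and senescence-related genes.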

senescent A549 cells = assay: Viability of senescent A549 cells (CellTiter-Glo), Example 18, Table 15; conditions: doxorubicin-induced senescent A549 cells, 0 μM = 100%
Method: Senescence-induced cancer cells treated with doxorubicin were treated with the test compound at designated concentrations, and cell viability was measured using the CellTiter-Glo Luminescent Cell Viability Assay (Promega).

[2] = tested on: HMGN1 secreted from senescent A549 cells; assay: HMGN1 secretion (ELISA) from senescent A549 cells, Example 18, Table 14; format: cell-based, human; conditions: doxorubicin-senescent A549, without test compound (DMSO) = 100%; 30 μM (LX-5211, LX-5433, LX-6530, LX-6800, LX-9105, LX-9118, LX-9131, LX-9136, LX-9302, LX-9321, LX-9565, LX-9602 at 90 μM; LX-9336 at 2.4 mM)
Method: On the other hand, in cancer cells treated with doxorubicin, where senescence was induced, the amount of HMGN1 measured under conditions where cells were not treated with the test compound was calculated as 100%, and the amount of HMGN1 was measured under conditions where the senescent cancer cells were treated with the test compound.

[3] = tested on: HMGN1 secreted from senescent cells; assay: HMGN1 secretion (ELISA) from doxorubicin-induced senescent cells, Example 17; format: cell-based, human; conditions: senescent untreated = 100%; 30 μM; 90 μM for LX-5211, 5433, 6530, 9105, 9118, 9321, 9602; 2.4 mM for LX-9336
senescent cells = assay: Viability of senescent cells (CellTiter-Glo), Example 17, Table 13; conditions: doxorubicin-induced senescent cells, 0 μM = 100
Method: Cells induced to undergo senescence by doxorubicin treatment were treated with test compound at designated concentrations and measured using the CellTiter-Glo Luminescent Cell Viability Assay (Promega).

[4] = tested on: bleomycin-induced pulmonary fibrosis mice; assay: Bleomycin-induced pulmonary fibrosis mice, Example 31, Table 56; format: in vivo, mouse; conditions: untreated = 100%
Method in brief: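 Mice with bleomycin-induced pulmonary fibrosis, untreated or given test compound, with vehicle-only controls. Lung tissue collected for RNA extraction and qRT-PCR analysis.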

naturally aged mice = assay: Anti-aging evaluation in naturally aged mice, Example 31, Table 55; format: in vivo, mouse; conditions: for Femur Ctsk mRNA / Kidney Agtr1a mRNA / Liver IL6 mRNA / Liver MMP3 mRNA / Liver p16 mRNA / Open Field Test Time in Center: untreated = 100%; for Heart Sur2a mRNA / Joint Col2a1 mRNA / Skin Col1a1 mRNA / Skin SDF1 mRNA: untreated = 1.0; for Muscle Mass: untreated 0.64 g; for Fat Mass: untreated 0.82 g; for Cataract incidence: untreated 83%;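 on all read-outs here: Vehicle-dosed control mice received solution alone at matching volume, values compare test-compound-treated aged mice against that control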

Molecule	Liver p16 mRNA [1]	Col1a1 mRNA [1]	Survival (%) (senescent A549 cells; 1.1 μM)	Survival (%) (senescent A549 cells; 10 μM)	Survival (%) (senescent A549 cells; […])	HMGN1 [2] [%]	HMGN1 [3] [%]	Survival (%) (senescent cells; 1.1 μM)	Survival (%) (senescent cells; 10 μM)	Survival (%) (senescent cells; 30 μM)	Survival (%) (senescent cells; […])	Lung p16 mRNA [4]	Col1a1 mRNA [4]	Femur Ctsk mRNA (naturally aged mice) [%]	Heart Sur2a mRNA (naturally aged mice) [fold]	Joint Col2a1 mRNA (naturally aged mice) [fold]	Kidney Agtr1a mRNA (naturally aged mice) [%]	Liver IL6 mRNA (naturally aged mice) [%]	Liver MMP3 mRNA (naturally aged mice) [%]	Survival (%) (senescent A549 cells; 30 μM)	other results
COC[C@]1(CO)C(=O)[C@H]2CC[N@]1[C@H](C)C2 [LX-5731, (1R,2R,4S,6R)-2-(hydroxymethyl)-2-(methoxymethyl)-6-methylquinuclidin-3-one]	60 (±6.5) %	64 (±10.4) %	94.4	30.6	83.1	307	235	98.8	48.2	11.7	89.8	69 (±3.7) %	62 (±13.8) %	44	2.5	2.7	49	42	77		Liver p16 mRNA (naturally aged mice): 58%; Open Field Test Time in Center (naturally aged mice): 237%; Skin Col1a1 mRNA (naturally aged mice): 2.3 Fold; Skin SDF1 mRNA (naturally aged mice): 2.0 fold; Muscle Mass (naturally aged mice): 0.71 g; Fat Mass (naturally aged mice): 1.01 g; Cataract incidence (naturally aged mice): 72%
CCNCc1nc2c(O)c(Cl)cc(Cl)c2c(=O)n1C [LX-9421]	59 (±5.4) %	34 (±3.7) %	102.9	62.3	83.3	284	201	92.1	67.9	25.9	89.3	35 (±1.6) %	40 (±2.0) %	44	2.1	2.8	46	41	32	20.7	Liver p16 mRNA (naturally aged mice): 57%; Open Field Test Time in Center (naturally aged mice): 222%; Skin Col1a1 mRNA (naturally aged mice): 2.3 Fold; Skin SDF1 mRNA (naturally aged mice): 2.6 fold; Muscle Mass (naturally aged mice): 0.78 g; Fat Mass (naturally aged mice): 0.99 g; Cataract incidence (naturally aged mice): 54%
Batiraxcept [LX-6982]			90.9	77.8	88.9	306	234	95.1	74.6	10.5	86.8									6.9	
Farletuzumab [LX-7621]			91.5	69.7	78.4	237	304	86.3	78.2	50.2	82.1									14.4	
Sulforadex [LX-7104]			103.3	58.7	81.2	246	287	88.5	45.7	2.8	75.7									18.1	
